This is an account of results in patent US7951802B2, “Use of 7-azaindoles in the inhibition of c-Jun N-terminal kinase” (Eisai R&D Management Co., Ltd., priority 2007, dated 2011).

As usually defined, the IC50 is the concentration that inhibits the measured activity by half.

For one assay, the system named is panel of 100 kinases. Description: Selectivity against a panel of kinases (Upstate/Millipore), expressed as Gini coefficient. The format is biochemical. The note with it: reference compounds with aromatic C(5) group, calculated from Table 4 data, concentration not given. On the procedure:
Selectivity of Compounds (I) Against a Panel of Kinases
Inhibitory potency of compound (I-8) and (I-60) at a concentration of 1 micromolar and (I-69) and (I-70) at a concentration of 5 micromolar with ATP concentration of 10 micromolar was determined at Upstate/Millipore against a panel of 100 kinases representing all major families within the kinome. The results are presented in Table 3 and are expressed as percentage of remaining activity.
For comparison purposes Table 4 contains the relevant inhibitory data for reference compounds A-L containing a (hetero)aromatic ring at C(5) of the 7-azaindole system.
Selectivity Expressed as Gini Coefficient
Selectivity of compounds according to the present invention and reference compounds expressed as Gini coefficient (J. Med. Chem. 2007, 50, 5773-5779) is shown in Table 5. The individual Gini coefficients have been calculated using the data in Tables 3 and 4. Value Gini=0 corresponds to a totally non-selective compound; value Gini=1 reflects perfect selectivity (inhibition of a single target only)

A further assay has as its target JNK3 (Homo sapiens, UniProt P53779). Kind of assay: JNK3 SPA assay (phosphorylation of GST-c-Jun). The assay is classed as biochemical. The note with it: 3.33 μM ATP, GST-c-Jun substrate, read-out: IC50 against JNK3. On the procedure:
JNK1, JNK2, JNK3—SPA Assay
JNK1, JNK2, JNK3—SPA Assay • 1. Compound is dissolved in DMSO to a convenient concentration and this is diluted in 10% DMSO to a five times concentrate of the desired starting concentration (frequently 1:100). • 2. 10 μl of 500 mM EDTA is added to alternative wells of the Opti-plate row, which will receive kinase reaction plus DMSO. This creates the negative control. • 3. For the JNK2 and JNK3 assay, compounds are prepared in six 2-fold dilutions with water and each concentration is tested in duplicate. For the JNK1 assay compounds are prepared in four 5-fold dilutions with water which are tested in triplicate. Controls are treated identically. • 4. 20 μl per well of each compound concentration is transferred to an Opti-plate, in duplicate. • 5. 30 μl (JNK2/3 SPA) or 50 μl (JNK1 SPA) of substrate solution (25 mM HEPES pH 7.5, 10 mM magnesium acetate with 3.33 μM ATP (JNK2/3) or 2 μM ATP (JNK1), approximately 7.5 kBq [γ-^33P] ATP, GST-c-Jun, in water) is added to each well. • 6. 50 μl (JNK2/3 SPA) or 30 μl (JNK1 SPA) of kinase solution (JNK in 25 mM HEPES pH 7.5, 10 mM Mg Acetate) is added to each well.
• 7. The plate is incubated for 30 minutes at room temperature. • 8. 100 μl of bead/stop solution is added to each well (5 mg/ml glutathione-PVT-SPA beads, 40 mM ATP in PBS). • 9. Plates are sealed and incubated for 30 minutes at room temperature, centrifuged for 10 minutes at 2500 g and counted. • 10. The IC50 values are calculated as the concentration of the compound being tested at which the phosphorylation of c-Jun is decreased to 50% of the control value.

Sequence of JNK3 (P53779 whole entry, species assumed): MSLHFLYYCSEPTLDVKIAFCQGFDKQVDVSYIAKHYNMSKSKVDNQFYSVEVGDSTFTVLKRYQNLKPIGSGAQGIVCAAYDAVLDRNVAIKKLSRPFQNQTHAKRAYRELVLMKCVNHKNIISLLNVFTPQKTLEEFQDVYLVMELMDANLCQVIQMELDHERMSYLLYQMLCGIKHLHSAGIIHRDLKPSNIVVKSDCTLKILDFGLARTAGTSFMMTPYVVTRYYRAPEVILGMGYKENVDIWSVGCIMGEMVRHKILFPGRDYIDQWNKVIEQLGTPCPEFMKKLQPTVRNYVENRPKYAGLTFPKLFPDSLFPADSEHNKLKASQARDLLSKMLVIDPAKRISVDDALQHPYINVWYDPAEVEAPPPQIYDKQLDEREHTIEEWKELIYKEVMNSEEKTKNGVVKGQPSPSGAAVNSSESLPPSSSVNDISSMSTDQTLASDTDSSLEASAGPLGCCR

As to `CN(C)c1ccc(-c2cnc3[nH]cc(-c4cn[nH]c4)c3c2)cc1` [A], the “Selectivity expressed as Gini coefficient” value (“Selectivity expressed” for short) in the assay on panel of 100 kinases is 0.3368.

With `Cn1cc(-c2c[nH]c3ncc(-c4ccc(N5CCOCC5)cc4)cc23)cn1` [B], the “Selectivity expressed” value in the assay with panel of 100 kinases is 0.3920.

`c1nc2[nH]cc(-c3cn[nH]c3)c2cc1-c1csc(C2CCNCC2)n1` [C]: in the assay on panel of 100 kinases, the “Selectivity expressed” value is 0.4129.

In the case of `CN1CCCC1c1nc(-c2c[nH]c3ncc([C@H]4CC[C@@H](N5CCOCC5)CC4)cc23)cs1` (stereo partly drawn) [Compound I-108, 4-((1s,4s)-4-(3-(2-(1-methylpyrrolidin-2-yl)thiazol-4-yl)-1H-pyrrolo[2,3-b]pyridin-5-yl)cyclohexyl)morpholine], on JNK3, the IC50 was 1230 nM.

With `CN1CCN([C@H]2CC[C@H](c3cnc4[nH]cc(-c5csc(C6CCCN6C)n5)c4c3)CC2)CC1` (stereo partly drawn) [Compound I-109, 4-(5-((1r,4r)-4-(4-methylpiperazin-1-yl)cyclohexyl)-1H-pyrrolo[2,3-b]pyridin-3-yl)-2-(1-methylpyrrolidin-2-yl)thiazole], the IC50 at JNK3 amounted to 1740 nM.

`CN1CCN([C@H]2CC[C@@H](c3cnc4[nH]cc(-c5csc(C6CCCN6C)n5)c4c3)CC2)CC1` (stereo partly drawn) [Compound I-110, 4-(5-((1s,4s)-4-(4-methylpiperazin-1-yl)cyclohexyl)-1H-pyrrolo[2,3-b]pyridin-3-yl)-2-(1-methylpyrrolidin-2-yl)thiazole]: on JNK3, the half-maximal inhibitory concentration (IC50) was above 2000 nM.

Regarding `CN1CCCC1c1nc(-c2c[nH]c3ncc([C@H]4CC[C@H](N5CCCC5)CC4)cc23)cs1` (stereo partly drawn) [Compound I-111, 2-(1-methylpyrrolidin-2-yl)-4-(5-((1r,4r)-4-(pyrrolidin-1-yl)cyclohexyl)-1H-pyrrolo[2,3-b]pyridin-3-yl)thiazole], on JNK3, the half-maximal inhibitory concentration (IC50) is 1740 nM.

Consider `CN1CCCC1c1nc(-c2c[nH]c3ncc([C@H]4CC[C@H](N5CCCOCC5)CC4)cc23)cs1` (stereo partly drawn) [Compound I-113, 4-((1r,4r)-4-(3-(2-(1-methylpyrrolidin-2-yl)thiazol-4-yl)-1H-pyrrolo[2,3-b]pyridin-5-yl)cyclohexyl)-1,4-oxazepane], for which the half-inhibitory concentration (IC50) on JNK3 was 1230 nM.

For `CN1CCCC1c1nc(-c2c[nH]c3ncc([C@H]4CC[C@@H](N5CCCOCC5)CC4)cc23)cs1` (stereo partly drawn) [Compound I-114, 4-((1s,4s)-4-(3-(2-(1-methylpyrrolidin-2-yl)thiazol-4-yl)-1H-pyrrolo[2,3-b]pyridin-5-yl)cyclohexyl)-1,4-oxazepane], the IC50 on JNK3 was found to be 1440 nM.

For the compound `c1nc(-c2c[nH]c3ncc([C@H]4CC[C@H](N5CCCOCC5)CC4)cc23)cs1` [Compound I-116, 4-((1r,4r)-4-(3-(thiazol-4-yl)-1H-pyrrolo[2,3-b]pyridin-5-yl)cyclohexyl)-1,4-oxazepane], the IC50 on JNK3 was above 2000 nM.

In the case of `Cc1csc(-c2c[nH]c3ncc([C@H]4CC[C@H](N5CCCOCC5)CC4)cc23)n1` [Compound I-117, 4-((1r,4r)-4-(3-(4-methylthiazol-2-yl)-1H-pyrrolo[2,3-b]pyridin-5-yl)cyclohexyl)-1,4-oxazepane], at JNK3, the half-maximal inhibitory concentration (IC50) came out at 832 nM.

On to `c1ncc(-c2c[nH]c3ncc([C@H]4CC[C@H](N5CCCOCC5)CC4)cc23)s1` [Compound I-118, 4-((1r,4r)-4-(3-(thiazol-5-yl)-1H-pyrrolo[2,3-b]pyridin-5-yl)cyclohexyl)-1,4-oxazepane], for which the IC50 on JNK3 turned out to be 219 nM.

With `c1csc(-c2c[nH]c3ncc([C@H]4CC[C@H](N5CCCOCC5)CC4)cc23)n1` [Compound I-119, 4-((1r,4r)-4-(3-(thiazol-2-yl)-1H-pyrrolo[2,3-b]pyridin-5-yl)cyclohexyl)-1,4-oxazepane], on JNK3, the half-maximal inhibitory concentration (IC50) was found to be 1050 nM.

Regarding `COc1nc(-c2c[nH]c3ncc([C@H]4CC[C@H](N5CCOCC5)CC4)cc23)cs1` [Compound I-120, 4-((1r,4r)-4-(3-(2-methoxythiazol-4-yl)-1H-pyrrolo[2,3-b]pyridin-5-yl)cyclohexyl)morpholine], on JNK3, the half-inhibitory concentration (IC50) was determined as 479 nM.

As for `Cc1cnc(-c2c[nH]c3ncc([C@H]4CC[C@H](N5CCCOCC5)CC4)cc23)s1` [Compound I-121, 3-(5-methyl-1,3-thiazol-2-yl)-5-[trans-4-(1,4-oxazepan-4-yl)cyclohexyl]-1H-pyrrolo[2,3-b]pyridine], the half-maximal inhibitory concentration (IC50) on JNK3 is 1450 nM.

In the case of `c1sc(N2CCCC2)nc1-c1c[nH]c2ncc([C@H]3CC[C@H](N4CCCOCC4)CC3)cc12` [Compound I-122, 5-[trans-4-(1,4-oxazepan-4-yl)cyclohexyl]-3-(2-pyrrolidin-1-yl-1,3-thiazol-4-yl)-1H-pyrrolo[2,3-b]pyridine], at JNK3, the IC50 stood at 1290 nM.

As for `Cc1nc(-c2c[nH]c3ncc([C@H]4CC[C@H](N5CCCOCC5)CC4)cc23)sc1C` [Compound I-123, 3-(4,5-dimethyl-1,3-thiazol-2-yl)-5-[trans-4-(1,4-oxazepan-4-yl)cyclohexyl]-1H-pyrrolo[2,3-b]pyridine], on JNK3, the IC50 amounted to 1070 nM.

As to `COc1nc(-c2c[nH]c3ncc([C@H]4CC[C@H](N5CCCOCC5)CC4)cc23)cs1` [Compound I-124, 3-(2-methoxy-1,3-thiazol-4-yl)-5-[trans-4-(1,4-oxazepan-4-yl)cyclohexyl]-1H-pyrrolo[2,3-b]pyridine], at JNK3, the IC50 was 520 nM.

On to `CCOc1nc(-c2c[nH]c3ncc([C@H]4CC[C@H](N5CCCOCC5)CC4)cc23)cs1` [Compound I-125, 3-(2-ethoxy-1,3-thiazol-4-yl)-5-[trans-4-(1,4-oxazepan-4-yl)cyclohexyl]-1H-pyrrolo[2,3-b]pyridine], for which, on JNK3, the concentration for half-maximal inhibition (IC50) turned out to be 520 nM.

Regarding `CN1CCN(c2ccc(-c3cnc4[nH]cc(-c5csc(C(=O)N6CCCCC6)n5)c4c3)cc2)CC1` [D], the “Selectivity expressed” value in the assay with panel of 100 kinases is 0.2705.

Consider `CN1CCC(c2csc(-c3cnc4[nH]cc(-c5cnn(C)c5)c4c3)n2)CC1` [E], for which the “Selectivity expressed” value in the assay with panel of 100 kinases is 0.3757.

Take `CC(C)Cn1cc(-c2cnc3[nH]cc(-c4cnn(C)c4)c3c2)cn1` [F]: the “Selectivity expressed” value with panel of 100 kinases is 0.3777.

For `CN(C)C(=O)c1nc(-c2c[nH]c3ncc(-c4ccccc4)cc23)cs1` [G], the “Selectivity expressed” value in the assay on panel of 100 kinases is 0.3501.

As for `CN1CCN(c2nc(-c3c[nH]c4ncc(-c5ccccc5)cc34)cs2)CC1` [H], in the assay with panel of 100 kinases, the “Selectivity expressed” value is listed as 0.4917.

With `CN1CCN(C(=O)c2nc(-c3c[nH]c4ncc(-c5ccc(N6CCN(C)CC6)cc5)cc34)cs2)CC1` [J], the “Selectivity expressed” value with panel of 100 kinases is given as 0.3286.

With `O=C(c1nc(-c2c[nH]c3ncc(-c4ccccc4)cc23)cs1)N1CCOCC1` [K], the “Selectivity expressed” value with panel of 100 kinases is on record as 0.2968.

On to `c1ncc(-c2c[nH]c3ncc(-c4ccc(N5CCOCC5)cc4)cc23)s1` [L], for which, in the assay on panel of 100 kinases, the “Selectivity expressed” value is 0.3642.
